Laboratory results taken from patent US20230150974A1 (Foghorn Therapeutics Inc., priority 2020, published 2023).

What was measured:
HiBiT-BRM = target: T1, HiBiT-BRM (Homo sapiens, UniProt P51531); assay: HiBiT-BRM cell-based degradation assay (Nano-Glo HiBiT Lytic Detection); settings: HeLa cells expressing HiBiT-BRM, 24 h; for DC50: read-out: BRM HiBit Degradation IC50
T1 construct: expressed in transfected cells
Method in brief: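 HeLa cells stably expressing HiBiT-tagged BRM were treated for 24 h, then lysed with LgBiT-containing Nano-Glo reagent and luminescence read. % degradation scaled between DMSO (high control) and 2 μM reference BRM/BRG1 degrader (low control).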

HiBit-BRG1 = target: T2, HiBit-BRG1 (Homo sapiens, UniProt P51532); assay: HiBit-BRG1 cell-based degradation assay (Nano-Glo HiBiT Lytic Detection); settings: HeLa cells expressing HiBit-BRG1 and LgBit, 24 h; for DC50: read-out: BRG1 HiBit Degradation IC50; for Dmax: read-out: BRG1 HiBit Degradation Maximum (%)
T2 construct: expressed in transfected cells
T2 sequence (P51532 whole entry): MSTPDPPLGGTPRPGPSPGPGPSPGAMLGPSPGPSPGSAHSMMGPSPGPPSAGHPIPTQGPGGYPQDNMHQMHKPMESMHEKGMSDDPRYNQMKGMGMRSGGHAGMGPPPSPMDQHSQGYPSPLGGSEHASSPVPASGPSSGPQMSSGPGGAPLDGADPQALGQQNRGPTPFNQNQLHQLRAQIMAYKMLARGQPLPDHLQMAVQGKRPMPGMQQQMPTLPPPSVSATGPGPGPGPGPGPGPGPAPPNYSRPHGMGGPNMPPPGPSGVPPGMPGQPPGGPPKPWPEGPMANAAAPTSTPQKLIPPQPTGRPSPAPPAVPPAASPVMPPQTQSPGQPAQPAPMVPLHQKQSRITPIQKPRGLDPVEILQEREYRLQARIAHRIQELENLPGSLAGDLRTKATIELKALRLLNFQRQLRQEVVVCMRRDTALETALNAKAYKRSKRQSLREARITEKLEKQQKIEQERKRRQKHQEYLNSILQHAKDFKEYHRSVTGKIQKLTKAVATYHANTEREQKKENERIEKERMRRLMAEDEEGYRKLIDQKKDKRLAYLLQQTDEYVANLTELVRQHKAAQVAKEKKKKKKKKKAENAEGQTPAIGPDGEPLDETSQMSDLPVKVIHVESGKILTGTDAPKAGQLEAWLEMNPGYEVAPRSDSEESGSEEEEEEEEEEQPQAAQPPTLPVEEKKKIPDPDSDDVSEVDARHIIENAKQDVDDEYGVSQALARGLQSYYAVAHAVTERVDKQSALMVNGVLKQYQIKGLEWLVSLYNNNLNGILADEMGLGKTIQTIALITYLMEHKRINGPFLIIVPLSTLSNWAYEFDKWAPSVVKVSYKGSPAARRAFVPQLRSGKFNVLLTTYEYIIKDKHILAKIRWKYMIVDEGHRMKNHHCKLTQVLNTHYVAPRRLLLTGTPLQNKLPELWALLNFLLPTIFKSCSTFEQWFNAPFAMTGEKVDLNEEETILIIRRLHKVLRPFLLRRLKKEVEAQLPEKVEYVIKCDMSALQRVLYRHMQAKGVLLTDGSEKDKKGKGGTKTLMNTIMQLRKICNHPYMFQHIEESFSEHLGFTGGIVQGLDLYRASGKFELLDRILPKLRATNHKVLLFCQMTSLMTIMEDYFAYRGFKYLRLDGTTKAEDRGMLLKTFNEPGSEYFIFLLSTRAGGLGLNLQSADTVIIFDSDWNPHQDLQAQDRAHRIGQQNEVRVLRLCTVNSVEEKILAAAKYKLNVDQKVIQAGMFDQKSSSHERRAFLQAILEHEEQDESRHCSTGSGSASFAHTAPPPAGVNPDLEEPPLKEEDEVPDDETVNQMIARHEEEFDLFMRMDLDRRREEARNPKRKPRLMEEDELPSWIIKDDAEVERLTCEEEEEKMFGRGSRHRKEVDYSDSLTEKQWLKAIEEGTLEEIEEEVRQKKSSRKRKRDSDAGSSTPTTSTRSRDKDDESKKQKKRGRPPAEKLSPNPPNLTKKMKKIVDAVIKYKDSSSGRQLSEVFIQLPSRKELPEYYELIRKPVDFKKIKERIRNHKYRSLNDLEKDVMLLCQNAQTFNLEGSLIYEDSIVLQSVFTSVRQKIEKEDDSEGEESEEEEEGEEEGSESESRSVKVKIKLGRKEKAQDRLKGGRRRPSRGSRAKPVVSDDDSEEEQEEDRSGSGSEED
Method in brief: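 Stable HeLa line co-expressing HiBit-BRG1 and LgBit, 5000 cells/well, treated 24 h in a tissue culture incubator. Lysed with Nano-Glo HiBiT lytic reagent, luminescence read. % degradation normalized to DMSO (high control) and 2 μM reference BRM/BRG1 degrader (low control).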

T1 sequence (P51531 whole entry): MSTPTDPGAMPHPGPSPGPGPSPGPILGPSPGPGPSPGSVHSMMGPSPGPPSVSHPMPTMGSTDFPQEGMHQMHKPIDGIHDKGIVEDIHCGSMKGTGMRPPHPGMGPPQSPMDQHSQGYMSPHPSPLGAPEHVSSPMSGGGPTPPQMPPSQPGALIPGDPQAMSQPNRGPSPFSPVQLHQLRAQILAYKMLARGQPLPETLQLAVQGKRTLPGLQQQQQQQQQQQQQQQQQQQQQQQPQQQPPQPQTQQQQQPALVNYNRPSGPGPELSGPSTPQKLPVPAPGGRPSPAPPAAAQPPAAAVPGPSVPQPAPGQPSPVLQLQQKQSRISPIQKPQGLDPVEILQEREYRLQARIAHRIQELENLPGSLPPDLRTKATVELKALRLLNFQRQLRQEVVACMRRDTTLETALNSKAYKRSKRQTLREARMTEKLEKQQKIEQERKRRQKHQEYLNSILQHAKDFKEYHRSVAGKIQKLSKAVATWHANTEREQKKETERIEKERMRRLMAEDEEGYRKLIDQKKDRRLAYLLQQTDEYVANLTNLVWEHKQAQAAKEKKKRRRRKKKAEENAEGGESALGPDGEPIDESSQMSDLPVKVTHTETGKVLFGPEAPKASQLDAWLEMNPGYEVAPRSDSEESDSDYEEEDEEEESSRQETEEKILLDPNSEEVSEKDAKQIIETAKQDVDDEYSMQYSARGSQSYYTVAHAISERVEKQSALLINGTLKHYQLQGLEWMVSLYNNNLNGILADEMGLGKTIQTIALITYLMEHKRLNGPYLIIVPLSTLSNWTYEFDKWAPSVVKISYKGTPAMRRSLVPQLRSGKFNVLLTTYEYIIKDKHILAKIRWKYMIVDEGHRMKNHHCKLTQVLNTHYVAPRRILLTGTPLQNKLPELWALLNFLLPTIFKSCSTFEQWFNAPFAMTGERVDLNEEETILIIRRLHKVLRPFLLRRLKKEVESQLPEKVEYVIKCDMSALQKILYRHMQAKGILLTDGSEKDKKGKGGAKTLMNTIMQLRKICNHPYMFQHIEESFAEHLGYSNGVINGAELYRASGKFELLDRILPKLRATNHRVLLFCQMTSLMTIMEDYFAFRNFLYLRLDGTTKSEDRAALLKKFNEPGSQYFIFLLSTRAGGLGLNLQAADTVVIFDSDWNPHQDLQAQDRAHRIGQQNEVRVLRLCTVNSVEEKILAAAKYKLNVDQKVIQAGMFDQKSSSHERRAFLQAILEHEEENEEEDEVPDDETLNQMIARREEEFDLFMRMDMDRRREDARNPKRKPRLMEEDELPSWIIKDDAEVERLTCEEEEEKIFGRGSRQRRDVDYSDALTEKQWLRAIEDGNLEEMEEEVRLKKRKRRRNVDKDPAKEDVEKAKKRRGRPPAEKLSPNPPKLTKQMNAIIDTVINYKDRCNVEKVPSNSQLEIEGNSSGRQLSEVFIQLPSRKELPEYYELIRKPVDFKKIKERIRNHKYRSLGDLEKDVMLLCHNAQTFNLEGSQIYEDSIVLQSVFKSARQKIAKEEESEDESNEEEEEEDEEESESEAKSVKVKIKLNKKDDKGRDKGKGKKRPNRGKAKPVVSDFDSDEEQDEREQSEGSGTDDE

| SMILES | DC50 (HiBiT-BRM) [nM] | DC50 (HiBit-BRG1) [nM] | Dmax (HiBit-BRG1) [%] | BRM HiBit Degradation Maximum (%) (HiBiT-BRM) |
| --- | --- | --- | --- | --- |
| Nc1nnc(-c2ccccc2O)cc1OCCc1ccc(C(=O)NCCCCCCCCNc2cccc3c2C(=O)N(C2CCC(=O)NC2=O)C3=O)cc1 (stereo not shown) [Compound 44, 4-(2-((3-amino-6-(2-hydroxyphenyl)pyridazin-4-yl)oxy)ethyl)-N-(8-((2-(2,6-dioxopiperidin-3-yl)-1,3-dioxoisoindolin-4-yl)amino)octyl)benzamide] | > 100 | > 1000 | < 50 | B (“B” indicates maximum degradation ≥50%) |
| Cc1nc2cccc(NCCCCCCCCNC(=O)c3ccc(CCOc4cc(-c5ccccc5O)nnc4N)cc3)c2c(=O)n1C1CCC(=O)NC1=O (stereo not shown) [Compound 45, 4-(2-[[3-amino-6-(2-hydroxyphenyl)pyridazin-4-yl]oxy]ethyl)-N-(8-[[3-(2,6-dioxopiperidin-3-yl)-2-methyl-4-oxoquinazolin-5-yl]amino]octyl)benzamide] | > 1000 | > 1000 | < 50 | C (“C” indicates maximum degradation <50%) |
| Cc1nc2cccc(NCCOCCOCCNC(=O)c3ccc(CCOc4cc(-c5ccccc5O)nnc4N)cc3)c2c(=O)n1C1CCC(=O)NC1=O (stereo not shown) [Compound 48, 4-(2-[[3-amino-6-(2-hydroxyphenyl)pyridazin-4-yl]oxy]ethyl)-N-[2-[2-(2-[[3-(2,6-dioxopiperidin-3-yl)-2-methyl-4-oxoquinazolin-5-yl]amino]ethoxy)ethoxy]ethyl]benzamide] | > 1000 | > 1000 | < 50 | C (“C” indicates maximum degradation <50%) |

More lines, main results first:

| DC50 (HiBiT-BRM) [nM] | DC50 (HiBit-BRG1) [nM] | Dmax (HiBit-BRG1) [%] | SMILES | BRM HiBit Degradation Maximum (%) (HiBiT-BRM) |
| --- | --- | --- | --- | --- |
| > 1000 | > 1000 | < 50 | Nc1nnc(-c2ccccc2O)cc1OCCc1ccc(C(=O)NCCOCCOCCNc2cccc3c2C(=O)N(C2CCC(=O)NC2=O)C3=O)cc1 (stereo not shown) [Compound 43, 4-(2-[[3-amino-6-(2-hydroxyphenyl)pyridazin-4-yl]oxy]ethyl)-N-[2-[2-(2-[[2-(2,6-dioxopiperidin-3-yl)-1,3-dioxoisoindol-4-yl]amino]ethoxy)ethoxy]ethyl]benzamide] | C (“C” indicates maximum degradation <50%) |
| > 1000 | > 1000 | < 50 | Nc1nnc(-c2ccccc2O)cc1OCCc1ccc(C(=O)NCCCCCCNc2ccc3c(c2)C(=O)N(C2CCC(=O)NC2=O)C3=O)cc1 (stereo not shown) [Compound 46, 4-(2-[[3-amino-6-(2-hydroxyphenyl)pyridazin-4-yl]oxy]ethyl)-N-(6-[[2-(2,6-dioxopiperidin-3-yl)-1,3-dioxoisoindol-5-yl]amino]hexyl)benzamide] | C (“C” indicates maximum degradation <50%) |
| > 100 | > 1000 | < 50 | Cc1ncsc1-c1ccc(CNC(=O)[C@@H]2C[C@@H](O)CN2C(=O)[C@@H](NC(=O)CCCCCCCCCNC(=O)c2ccc(CCOc3cc(-c4ccccc4O)nnc3N)cc2)C(C)(C)C)cc1 [Compound 47, (2S,4R)-1-[(2S)-2-(10-[[4-(2-[[3-amino-6-(2-hydroxyphenyl)pyridazin-4-yl]oxy]ethyl)phenyl]formamido]decanamido)-3,3-dimethylbutanoyl]-4-hydroxy-N-[[4-(4-methyl-1,3-thiazol-5-yl)phenyl]methyl]pyrrolidine-2-carboxamide] | B (“B” indicates maximum degradation ≥50%) |
| > 1000 | > 1000 | < 50 | Nc1nnc(-c2ccccc2O)cc1OCCc1ccc(C(=O)N2CCC(C3CCN(C(=O)COc4cccc5c4C(=O)N(C4CCC(=O)NC4=O)C5=O)CC3)CC2)cc1 (stereo not shown) [Compound 49, 4-(2-(1′-(4-(2-((3-amino-6-(2-hydroxyphenyl)pyridazin-4-yl)oxy)ethyl)benzoyl)-[4,4′-bipiperidin]-1-yl)-2-oxoethoxy)-2-(2,6-dioxopiperidin-3-yl)isoindoline-1,3-dione] | C (“C” indicates maximum degradation <50%) |
